{"source": "patent US12577231B2", "about": "“Androgen receptor PROTACS” (GlaxoSmithKline Intellectual Property Development Limited, priority 2023, dated 2026)", "key": {"Androgen receptor F877L": {"target": "T1, Androgen receptor F877L (Homo sapiens, UniProt P10275, F877L)", "T1 construct": "expressed in transfected cells; host or cells: A549, transduced, puromycin selected", "T1 sequence (P10275 1-920 F877L)": "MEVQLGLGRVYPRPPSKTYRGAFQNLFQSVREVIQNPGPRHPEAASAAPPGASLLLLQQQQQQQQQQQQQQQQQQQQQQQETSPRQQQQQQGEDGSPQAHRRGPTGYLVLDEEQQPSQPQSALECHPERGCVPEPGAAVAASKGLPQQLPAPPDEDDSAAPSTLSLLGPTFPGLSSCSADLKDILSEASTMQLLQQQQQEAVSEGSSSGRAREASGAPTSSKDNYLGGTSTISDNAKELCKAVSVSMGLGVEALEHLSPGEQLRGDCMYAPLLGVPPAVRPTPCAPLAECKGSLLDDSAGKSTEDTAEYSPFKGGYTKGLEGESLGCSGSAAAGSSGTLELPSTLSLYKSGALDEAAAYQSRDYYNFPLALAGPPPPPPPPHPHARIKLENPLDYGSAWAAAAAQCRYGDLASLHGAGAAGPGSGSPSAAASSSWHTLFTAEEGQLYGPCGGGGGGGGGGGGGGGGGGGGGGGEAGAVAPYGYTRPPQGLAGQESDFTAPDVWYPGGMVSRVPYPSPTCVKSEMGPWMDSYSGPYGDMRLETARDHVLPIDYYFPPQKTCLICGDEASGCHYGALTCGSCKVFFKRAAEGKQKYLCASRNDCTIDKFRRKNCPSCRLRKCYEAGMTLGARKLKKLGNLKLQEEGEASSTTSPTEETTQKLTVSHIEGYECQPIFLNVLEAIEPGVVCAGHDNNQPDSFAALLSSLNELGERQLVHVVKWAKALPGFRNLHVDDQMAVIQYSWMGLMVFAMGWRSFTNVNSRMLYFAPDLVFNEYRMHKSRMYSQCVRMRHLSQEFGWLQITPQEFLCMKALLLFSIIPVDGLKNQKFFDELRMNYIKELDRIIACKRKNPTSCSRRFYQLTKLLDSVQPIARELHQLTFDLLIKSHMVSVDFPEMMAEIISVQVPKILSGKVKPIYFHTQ", "test": "Degradation of overexpressed Androgen Receptor in A549 cells (HiBiT), F877L", "type": "cell-based", "conditions": "A549 cells overexpressing AR F877L, cycloheximide, 24 hours", "protocol": "(§1) A549 cells were transduced to express wild type androgen receptor and Androgen receptor containing the following mutations (L702H, H875Y W742C W742L F877L, T878A and T878A/H875Y) with HiBiT tags. Transduced cells following puromycin selection were maintained in a humidified incubator (at 37° C. and 5% CO2 in the DMEM medium supplemented with 1% (v/v) Pen/Strep, 1% (v/v) Glutamax and 10% (v/v) FBS. A549 cells expressing each AR construct were detached from plate and counted. Cell suspensions at density 0.2 million per mL were prepared. Cell suspension was supplemented with 100 μg/mL of cycloheximide to block protein synthesis. Cells were preincubated with cycloheximide for 1 hr before seeding. Cells were seeded onto 384-well plate at density of 5,000 in 25 μL per well. A two fold serial dilution of test compounds, starting from 1 μM (row A) in 2-fold serial dilution series across the column using Tecan D300e dispenser. […]\n(§2) Nano-Glo HiBiT Lytic reagent was prepared by adding LgBiT protein and Nano-Glo® substrate to lytic buffer pre-equilibrated at room temperature following manufacturer protocol (https://www.promega.co.uk/resources/protocols/technical-manuals/101/nanoglo-luciferase-assay-system-protocol). […] The plates were then centrifuged (100×G, 1 min) and incubated on shaker for 10 mins before taking readings on Pherastar Luminescence microplate reader. […]"}, "Androgen receptor H875Y": {"target": "T2, Androgen receptor H875Y (Homo sapiens, UniProt P10275, H875Y)", "T2 construct": "expressed in transfected cells; host or cells: A549, transduced, puromycin selected", "T2 sequence (P10275 1-920 H875Y)": "T1 sequence (P10275 1-920 F877L) with H875Y, L877F", "test": "Degradation of overexpressed Androgen Receptor in A549 cells (HiBiT), H875Y", "type": "cell-based", "conditions": "A549 cells overexpressing AR H875Y, cycloheximide, 24 hours", "protocol": "as §1, §2"}}, "note": "Residue numbers refer to the chain shown, from its start.", "data": [{"smiles": "COc1cc(O[C@H]2C(C)(C)[C@H](NC(=O)c3ccc(N4CCC(CN5CCC(n6ncc7c(N8CCC(=O)NC8=O)nccc76)CC5)CC4)c(F)c3)C2(C)C)ccc1C#N", "note": "[Example 20, N-((1r,3r)-3-(4-Cyano-3-methoxyphenoxy)-2,2,4,4-tetramethylcyclobutyl)-4-(4-((4-(4-(2,4-dioxotetrahydropyrimidin-1(2H)-yl)-1H-pyrazolo[4,3-c]pyridin-1-yl)piperidin-1-yl)methyl)piperidin-1-yl)-3-fluorobenzamide]", "values": [{"measurement": "Summary pXC50", "setting": "Androgen receptor F877L", "value": 8.84}, {"measurement": "Summary pXC50", "setting": "Androgen receptor H875Y", "value": 8.83}]}]}
